Assay results published in PMC7038234, “Screening of Natural Extracts for Inhibitors against Japanese Encephalitis Virus Infection” (Antimicrobial Agents and Chemotherapy, 2020).
Like-named read-outs stand apart in the source and are kept apart here.

Tests used:
JEV SA14 replicon = test: JEV reporter replicon assay (Renilla luciferase) in Huh-7 cells; details: for JEV RNA synthesis (replicon luciferase signal): 24 h postelectroporation
[1] = Cytotoxicity / cell viability on Vero cells; details: African green monkey
JEV strain SA14 [2] = test: Immunofluorescence staining assay (IFA), SA14 infection of Vero cells
[3] = system: JEV strains AT31 and SA14; test: Plaque assay of virus production in culture supernatants (Vero, Huh-7, U251 cells); assay type: cell-based, Japanese encephalitis virus
JEV [4] = assay type: cell-based, Japanese encephalitis virus
JEV strain SA14 [5] = test: qRT-PCR of JEV RNA levels in Vero cell lysates; assay type: cell-based, Japanese encephalitis virus; details: Vero cells, high-, middle- and low-dose-treated groups
JEV AT31 = test: Addition of sodium and potassium assay (plaque assay); details: Vero cells, AT31, NaCl 0-100 mM, KCl 0-25 mM
JEV (AT31) = test: Antiviral efficacy in JEV-infected BALB/c mice; assay type: in vivo, BALB/c mouse
Procedure: Adult male BALB/c mice (4 weeks) were randomly divided into three groups: the JEV-infected and vehicle (0.75% DMSO in normal saline)-treated group, the JEV-infected and ouabain-treated group, and the ouabain-treated group. For infection, mice were infected intraperitoneally (i.p.) with a dose of 1 × 10^6 PFU JEV (AT31). The infected mice were i.p. administered with ouabain at 3 mg/kg of body weight or a vehicle control every day for 21 consecutive days. Mice were sacrificed at day 1, 3, 7, 10, or 21, depending on the experimental design. Blood, spleen, and brain samples were collected for plaque assay, qRT-PCR, and histopathology investigation (Vectra ss; PerkinElmer).
The viral burden was determined by plaque assay. The samples were weighed and homogenized in 300 μl of PBS. The homogenates were clarified by centrifugation (2,000 × g at 4°C) for 15 min and then diluted serially prior to infection of BHK-21 cells. The viral titer was adjusted for sample volume and tissue weight to calculate the titer as PFU/g.
Tissue samples and blood from JEV-infected mice were extracted with the RNAprep pure tissue kit (Tiangen; catalog no. DP431) and RNAprep pure blood kit (Tiangen; catalog no. DP433), respectively. JEV RNA levels were determined by one-step qRT-PCR on ABI Real-Time PCR systems using standard cycling conditions. The viral burden was calculated on a standard curve produced using serial 10-fold dilutions of plasmids carrying the infectious clone.
For histopathology investigation, brain tissues were collected from the mice and fixed in 4% paraformaldehyde; the hematoxylin-eosin staining protocol was followed for tissue staining.

JEV [6] = details: cited from earlier work
[7] = JEV-infected BALB/c mice, ouabain 3 mg/kg i.p. daily, 21 days

Structure (SMILES): C[C@H]1O[C@@H](O[C@H]2[C@@H](O)C[C@H](O[C@H]3[C@@H](O)C[C@H](O[C@H]4CC[C@@]5(C)[C@H](CC[C@@H]6[C@@H]5C[C@@H](O)[C@]5(C)[C@@H](C7=CC(=O)OC7)CC[C@]65O)C4)O[C@@H]3C)O[C@@H]2C)C[C@H](O)[C@@H]1O [digoxin]
- initial translation of replicon RNA (JEV SA14 replicon): neither drug inhibited
- JEV RNA synthesis (replicon luciferase signal) (JEV SA14 replicon): inhibited JEV RNA synthesis in a dose-dependent manner
- CC50 [1]: > 100 µM
- SA14 reproduction (JEV strain SA14 [2]; digoxin 392 nM): greatly inhibited
- reduction of AT31 and SA14 virus production ([3]; Vero cells, plaque assay, highest concentration): 4 to 6 log units
- adaptive (drug-resistant) mutant (JEV [4]): no adaptive mutant was found
- attenuated RNA levels of the SA14 strain (JEV strain SA14 [5]): above 40%
- dependence of JEV-inhibiting effect on extracellular NaCl and KCl (JEV AT31): positively correlated with extracellular NaCl but inversely correlated with KCl

Structure (SMILES): C[C@@H]1O[C@@H](O[C@H]2C[C@@H](O)[C@]3(CO)[C@H]4[C@H](O)C[C@]5(C)[C@@H](C6=CC(=O)OC6)CC[C@]5(O)[C@@H]4CC[C@]3(O)C2)[C@H](O)[C@H](O)[C@H]1O [ouabain]
- initial translation of replicon RNA (JEV SA14 replicon): neither drug inhibited
- JEV RNA synthesis (replicon luciferase signal) (JEV SA14 replicon): inhibited JEV RNA synthesis in a dose-dependent manner
- CC50 [1]: > 100 µM
- SA14 reproduction (JEV strain SA14 [2]; ouabain 98 nM): greatly inhibited
- animals survived (JEV (AT31); [7]): 8 out of 14
- survival rate (JEV (AT31); [7]): ~60%
- histopathological changes in brain (JEV (AT31); day 7 postinfection, meningitis, perivascular cuffing, vacuolar degeneration): remarkably alleviated
- plaques from brain on day 21 postinfection (JEV (AT31); day 21 postinfection, plaque assay): no plaques formed
- viral load in brain (plaque assay) (JEV (AT31); days 7, 10 and 21 postinfection, versus untreated infected mice): significantly reduced viral load
- effect on viral titers in the brain at the preclinical stage (JEV (AT31); qRT-PCR, days 1 and 3 postinfection): little effect
- effect on decreasing viral titers in the blood and spleen (JEV (AT31); qRT-PCR, earlier time points (days 1 and 3)): little effect
- behavior of mice treated with ouabain alone (JEV (AT31); uninfected BALB/c mice, ouabain 3 mg/kg i.p. daily): little abnormal behavior
- reduction of AT31 and SA14 virus production [3]: 4 to 6 log units
- adaptive (drug-resistant) mutant (JEV [4]): no adaptive mutant was found
- attenuated RNA levels of the SA14 strain (JEV strain SA14 [5]): above 40%
- dependence of JEV-inhibiting effect on extracellular NaCl and KCl (JEV AT31): positively correlated with extracellular NaCl but inversely correlated with KCl

Structure (SMILES): O[C@H]1[C@H]2c3cc4c(cc3CN3CCC(=C[C@@H]1O)[C@H]23)OCO4 [lycorine]
- CC50 [1]: > 100 µM

Structure (SMILES): COC(=O)C1=C(C)NC(C)=C(C(=O)OCCN2CCN(C(c3ccccc3)c3ccccc3)CC2)C1c1cccc([N+](=O)[O-])c1 (centres unmarked) [manidipine]
- JEV infection (JEV [6]): inhibited JEV infection in vitro and in vivo

Structure (SMILES): COc1cc2c(c(OC)c1OC)-c1c(cc3c(c1OC)OCO3)CC(C)C(C)C2 (centres unmarked) [schizandrin B]
- CC50 [1]: > 100 µM

Structure (SMILES): Oc1cc(O)c2c(c1)OC(c1ccc(O)c(O)c1)C(OC1(c3ccc(O)c(O)c3)Oc3cc(O)cc(O)c3C(O)C1O)C2 (centres unmarked) [procyanidin]
- CC50 [1]: > 100 µM

Structure (SMILES): COc1cc2c(c(OC)c1OC)-c1c(cc(OC)c(OC)c1OC)C[C@H](C)[C@H](C)C2 [schizandrin A]
- CC50 [1]: 100 µM

Structure (SMILES): COC1=CC23CCCN2CCc2cc4c(cc2C3C1O)OCO4 (centres unmarked) [cephalotaxlen]
- CC50 [1]: > 100 µM

Structure (SMILES): Cc1cc(O)c2c(c1)C(=O)c1cc(O)cc(O)c1C2=O [emodin]
- CC50 [1]: > 100 µM

Structure (SMILES): CCCCCCN(CCCCCC)C(=O)Cc1c(-c2ccc(F)cc2)[nH]c2ccccc12 [FGIN-1-27]
- JEV infection (JEV [6]): reduced the JEV infection in vitro
